Laboratory results published in publication PMC8569681, “New Pyrimidine and Pyridine Derivatives as Multitarget Cholinesterase Inhibitors: Design, Synthesis, and In Vitro and In Cellulo Evaluation” (ACS Chemical Neuroscience, 2021).
Read-outs that look alike come from different tables or passages of the source.

Key:
[1] = molecular target: T1, equine BChE (eqBChE) (Equus caballus, UniProt P81908); experiment: Inhibition constant and mechanism vs eqBChE, Dixon's method; assay type: biochemical; settings: for inhibition mechanism on eqBChE: Dixon's plot, best fitting model; for α, eqBChE: mixed inhibition, α > 1 free enzyme, α < 1 enzyme–substrate complex; for Ki: three substrate and five inhibitor concentrations, read-out: Ki ± SD, eqBChE
T1 construct: purchased Sigma-Aldrich (Milan, Italy)
T1 sequence (P81908 whole entry): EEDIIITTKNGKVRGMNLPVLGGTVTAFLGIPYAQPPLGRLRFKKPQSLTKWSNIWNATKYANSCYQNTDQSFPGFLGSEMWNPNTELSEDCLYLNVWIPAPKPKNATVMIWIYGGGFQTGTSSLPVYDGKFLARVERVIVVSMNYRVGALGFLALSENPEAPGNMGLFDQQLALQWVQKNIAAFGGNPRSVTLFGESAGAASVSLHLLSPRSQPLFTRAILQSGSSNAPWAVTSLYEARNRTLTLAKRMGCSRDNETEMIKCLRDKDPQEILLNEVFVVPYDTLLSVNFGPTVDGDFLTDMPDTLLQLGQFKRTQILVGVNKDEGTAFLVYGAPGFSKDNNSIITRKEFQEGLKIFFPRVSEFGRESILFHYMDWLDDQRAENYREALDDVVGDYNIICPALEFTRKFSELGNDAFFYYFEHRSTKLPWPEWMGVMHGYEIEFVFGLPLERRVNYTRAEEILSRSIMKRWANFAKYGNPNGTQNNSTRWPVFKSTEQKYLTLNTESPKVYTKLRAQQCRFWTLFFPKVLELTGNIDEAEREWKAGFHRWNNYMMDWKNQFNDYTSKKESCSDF
Experimental: . The recorded data were analyzed with the enzyme kinetic module of SigmaPlot to find the best fitting model of inhibition using the linear regression analysis. The reference kinetic models used in the regression analysis were competitive, noncompetitive, uncompetitive, and mixed. Each determination was repeated five times, and incorrect values were discarded to reduce the standard deviation within the limit of 5%. In this way, the regression lines obtained have a linear regression coefficient (R^2) higher than 0.95. Dixon’s plots of all tested compounds are reported in the Supporting Information (Figures S1–S12).
18, 22, 25, 26, 28, and 30 toward eqBChE). For each compound, a 500 μM stock solution was prepared in H2O/DMSO or in 10^–2 M HCl and diluted in water to prepare solutions of opportune concentrations to introduce in the cuvette volumes ranging from 30 to 100 μL, to obtain the desired final concentrations. The maximum amount of DMSO used for the preparation of the stock solution was calculated to have a DMSO content in cuvette <0.033%.
Three milliliters of 0.1 M phosphate buffer (pH = 7.4) containing DTNB (0.25 mM) and EeAChE (0.083 UmL^–1) or eqBChE (0.083 UmL^–1) was mixed with the opportune volume of the inhibitor solution to obtain a final inhibitor concentration in cuvette between 90 and 1800 nM. With this solution, the blank was made. […]. The absorbance variations were measured at 412 nm at 25 °C between 0.5 and 1.5 min.
To determine the inhibition constants (Ki) and the inhibition mechanisms, the rates of hydrolysis at three different concentrations of substrate in the presence of five different concentrations of inhibitor were measured.

[2] = molecular target: T2, Aβ42 peptide (Homo sapiens, UniProt P05067); experiment: Inhibition of Aβ42 aggregation in intact E. coli cells, thioflavin-S; assay type: cell-based, Escherichia coli; settings: [I] = 100 μM
T2 construct: expressed in transfected cells; host or cells: E. coli BL21 (DE3), pET28a
T2 sequence (P05067 672-713 limits assumed): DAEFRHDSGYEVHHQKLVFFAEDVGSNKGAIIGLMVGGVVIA
Experimental: The anti-aggregating effect of the tested compounds was monitored by a cell-based assay in intact Escherichia coli cells that overexpress either the Aβ42 peptide or tau protein, which upon overexpression form insoluble inclusion bodies that were stained with thioflavin-S, an amyloid specific dye.[36] The percentages of inhibition toward Aβ42 and tau aggregation were determined at an inhibitor concentration of 100 μM, and the obtained results are reported in Table 7.
E. coli competent cells BL21 (DE3) were transformed with the pET28a vector (Novagen, Inc., Madison, WI, USA) carrying the DNA sequence of Aβ42. Because of the addition of the initiation codon ATG in front of both genes, the overexpressed peptide contains an additional methionine residue at its N terminus. For overnight culture preparation, an amount of 10 mL of the M9 minimal medium containing 50 μg·mL^–1 of kanamycin was inoculated with a colony of BL21 (DE3) bearing the plasmid to be expressed at 37 °C. For expression of the Aβ42 peptide, the required volume of overnight culture to obtain 1:500 dilution was added into the fresh M9 minimal medium containing 50 μg·mL^–1 of kanamycin and 250 μM Th-S. The bacterial culture was grown at 37 °C and 250 rpm. When the cell density reached OD600 = 0.6, an amount of 980 μL of culture was transferred into Eppendorf tubes of 1.5 mL with 10 μL of each compound to be tested in DMSO and 10 μL of isopropyl 1-thio-β-D-galactopyranoside (IPTG) at 100 mM. The final concentration of the drug was fixed at 100 μM. The samples were grown overnight at 37 °C and 1400 rpm using a ThermoMixer (Eppendorf, Hamburg, Germany). As negative control (maximal amyloid presence), the same amount of DMSO without the drug was added in the sample. In parallel, non-induced samples (in the absence of IPTG) were also prepared and used as positive controls (non-amyloid presence). In addition, these samples were used to assess the potential intrinsic toxicity of the compounds and to confirm the correct bacterial growth.
Th-S (T1892) and other chemical reagents were purchased from Sigma (St. Louis, MO). The Th-S stock solution ([…]) was prepared in double-distilled water purified through a Milli-Q system (Millipore, USA). Th-S fluorescence and absorbance were tracked using a DTX 800 plate reader Multimode Detector equipped with a Multimode Analysis Software (Beckman-Coulter, USA). Filters of 430/35 and 485/20 nm were used for the excitation and emission wavelengths, respectively. Filters of 535/25 nm were also used for the absorbance determination. To normalize the Th-S fluorescence as a function of the bacterial concentration, OD600 was obtained using a Shimadzu UV-2401 PC UV–vis spectrophotometer (Shimadzu, Japan). Note that the fluorescence normalization was carried out considering as 100% the Th-S fluorescence of the bacterial cells expressing the peptide or protein in the absence of drug and 0% the Th-S fluorescence of the bacterial cells not expressing the peptide or protein. A minimum of five independent assays (with three replicates for assay) was performed for each tested compound. More assays were performed to obtain a SEM < 5% with a maximum of 10 independent assays.

[3] = molecular target: T1, equine BChE (eqBChE); experiment: Percent inhibition of eqBChE, Ellman's spectrophotometric method; assay type: biochemical; settings: for % inhibition vs eqBChE ± SD (900 uM): 900 nM; for inhibition at 0.9 µM: [I] 900 nM
Experimental: On the synthesized compounds, enzymatic inhibition studies were carried out toward Electrophorus electricus AChE (EeAChE) and equine BChE (eqBChE) according to Ellman’s spectrophotometric method.[25]
All other chemical and biological reagents and solvents used were of the highest analytical, commercially available grade. The water, utilized for the preparation of the phosphate buffer and of the compound solutions, was distilled and filtered on nylon membrane filters with a 0.2 μm pore size with the Millipore Filtration apparatus before each use. Micropipettes Labmate (BRAND Dig. 10–100 μL; Dig. 100–1000 μL; Dig. 0.1–2 μL) and Transferpette (HIGH TECH LAB LM200: 20–200 μL; LM5000: 1000–5000 μL) were used to collect the samples. The assays were carried out by a double beam UV–vis Lambda 40 Perkin Elmer spectrophotometer using optical polystyrene cuvettes (10 × 10 × 45 mm, 340–800 nm optical transparency); each measure was repeated at least in triplicate. […] The spectrophotometric method of Ellman[25] with minor modifications was used to evaluate the inhibition of ChEs. […] EeAChE and eqBChE were periodically tested to evaluate the effective enzymatic activity.
For all the synthesized compounds, the percentages of inhibition toward AChE of Electrophorus electricus (EeAChE) and equine BChE (eqBChE) were evaluated.
Three milliliters of a solution in 0.1 M phosphate buffer (pH = 7.4) containing DTNB (0.25 mM) and EeAChE (0.083 UmL^–1) or eqBChE (0.083 UmL^–1) was placed in a polystyrene cuvette of 1.0 cm path length; 1 μL of a solution in DMSO of the tested compound was added to obtain a cuvette concentration range of 9–0.09 μM. With this solution, the blank was made. […] Each experiment was repeated at least in triplicate.

[4] = 0.0833 U/mL enzyme, 100 μM acetylthiocholine, read-out: % inhibition vs eqBChE ± SD
[5] = [I] 9 μM, 0.0833 U/mL enzyme, 100 μM acetylthiocholine, read-out: % inhibition vs eqBChE ± SD
[6] = read-out: % inhibition vs eqBChE ± SD (9 uM), 9 uM, supplement csv

Compound | inhibition mechanism on eqBChE [1] | α, eqBChE [1] | Ki [1] | inhibition at 100 µM [2] | % inhibition vs eqBChE ± SD (900 uM) ([3]; supplement csv) | inhibition at 0.9 µM [3, 4] | inhibition at 9 µM [3, 5] | inhibition at 9 µM [3, 6] | % inhibition vs eqBChE ± SD ([3]; [I] 9 μM, 0.0833 U/mL enzyme, 100 μM acetylthiocholine) | inhibition at 0.09 µM ([3]; [I] 90 nM, 0.0833 U/mL enzyme, 100 μM acetylthiocholine, read-out: % inhibition vs eqBChE ± SD)
COc1cc(CNCCCCCCNc2ncccn2)ccc1O [Compound 18, 2-Methoxy-4-(((6-(pyrimidin-2-ylamino)hexyl)amino)methyl)phenol] | mixed | 7.3 | 3030 ± 604 nM | 1.7% | 44.2 ± 6.4% | 44% | 84% | 84.4 ± 0.8% |  | 
c1cnc(NCCCCCCNCc2c[nH]c3ccccc23)nc1 [Compound 22, N^1-((1H-Indol-3-yl)methyl)-N^6-(pyrimidin-2-yl)hexane-1,6-diamine] | mixed | 10 | 99 ± 71 nM | 9.7% | 65.1 ± 3.8% | 65% | 94% | 94 ± 0.7% | 94.0 ± 0.7% | 
c1ccc(CNCCCCCCNc2ncccn2)cc1 [Compound 13, N^1-Benzyl-N^6-(pyrimidin-2-yl)hexane-1,6-diamine] |  |  |  | 21% |  |  | 26 ± 3.5% | 26 ± 3.5% |  | 
Oc1cccc(CNCCCCCCNc2ncccn2)c1O [Compound 20, 3-(((6-(Pyrimidin-2-ylamino)hexyl)amino)methyl)benzene-1,2-diol] |  |  |  | 7.2% |  |  | 17.1 ± 1.6% | 17.1 ± 1.6% |  | 
c1ccc(CNCCCCCCNc2ccccn2)cc1 [Compound 25, N^1-Benzyl-N^6-(pyridin-2-yl)hexane-1,6-diamine] | mixed | 2.2 | 2370 ± 304 nM | 16.8% |  | 16.6 ± 6.3% | 71.6 ± 2.1% | 16.6 ± 6.3% |  | 
Brc1ccc(CNCCCCCCNc2ccccn2)cc1 [Compound 26, N^1-(4-Bromobenzyl)-N^6-(pyridin-2-yl)hexane-1,6-diamine] | mixed | 0.5 | 3460 ± 1480 nM | 7.3% |  | 17 ± 2.7% | 76.8 ± 0.5% | 17 ± 2.7% |  | 
c1ccc(CNCCCCCNc2ncccn2)cc1 [Compound 9, N^1-Benzyl-N^5-(pyrimidin-2-yl)pentane-1,5-diamine] |  |  |  | 5.8% |  |  | 17.4 ± 2.7% | 17.4 ± 2.7% |  | 
c1ccc(CNCCCCCNc2ccccn2)cc1 [Compound 23, N^1-Benzyl-N^5-(pyridin-2-yl)pentane-1,5-diamine] |  |  |  | 10.4% |  | 5 ± 5.8% | 56.5 ± 3% | 5 ± 5.8% |  | 
COc1cc(CNCCCCCCNc2ccccn2)ccc1O [Compound 30, 2-Methoxy-4-(((6-(pyridin-2-ylamino)hexyl)amino)methyl)phenol] | mixed | 1.4 | 1100 ± 189 nM | 13.6% | 15.6 ± 6.1% | 51% | 91% | 51.2 ± 3.1% |  | 15.6 ± 6.1%
Oc1cccc(CNCCCCCCNc2ncccn2)c1 [Compound 19, 3-(((6-(Pyrimidin-2-ylamino)hexyl)amino)methyl)phenol] |  |  |  | 16.7% |  |  | 26.6 ± 3.9% | 26.6 ± 3.9% |  | 
COc1ccccc1CNCCCCCCNc1ccccn1 [Compound 28, N^1-(2-Methoxybenzyl)-N^6-(pyridin-2-yl)hexane-1,6-diamine] | mixed | 0.8 | 3430 ± 701 nM | 22.3% |  | 24.2 ± 3.3% | 74.3 ± 1.4% | 24.2 ± 3.3% |  | 
